Source: paper PMC11212260, “Next-generation neuropeptide Y receptor small-molecule agonists inhibit mosquito-biting behavior” (Parasites & Vectors, 2024)
“And” between values parts separate entries of the source, which are not always exact repeats. Equal values may be shown once. Read-outs that look alike come from different tables or passages of the source.

Key:
[1] = tested on: Aedes aegypti (Orlando strain) females; test: Host-seeking screening assay (miniport olfactometer); assay type: in vivo; details: fed 1 μM in saline, tested 48 h post-meal; for Host-seeking relative to saline (test compound % host-seeking/average matched saline % host-seeking): individual replicates; for Attraction (relative to saline): per-compound value of Fig. 3C
Method: Groups of 60–150 females were placed in bucket cages with a diameter of 21.6 cm and height of 16.5 cm (VWR) and fasted with access to water for 24 h prior to feeding. Meals were delivered to females via Glytube membrane feeders as described previously. Meals consisted of 1.5 ml sheep blood (HemoStat Laboratories), saline (400 mM NaHCO3 + dih2O), or saline and test compound. Lyophilized compounds were stored at room temperature until use. High-concentration stocks (30 mM in 100% dimethyl sulfoxide [DMSO]) (Sigma-Aldrich) were stored at −20 °C and diluted in saline immediately prior to feeding. Once prepared, meals and glycerol heating elements were warmed in a 42 °C water bath for 15 min to provide warmth to attract mosquitos to feed. ATP (1 mM final concentration) and test compounds (1 μM final concentration) were added prior to placing the meal on top of the mesh on the cage containing female mosquitos. Females were allowed 15–20 min to feed to repletion. Abdominal engorgement was scored by eye and confirmed by weighing females to ensure full feeding (Data S1). […] Females were returned to their original cage with a diH2O wick for 48 h prior to behavioral testing. The lethality of each compound was measured by counting the number of dead females in each cage 24 h post-meal.
Miniport olfactometers were fabricated in-house as described previously. Information regarding design, construction, and use can be found at https://github.com/VosshallLab/Miniport-Construction. Miniport canisters consisted of a 6″ × 3″ × 3″ acrylic tube with a mesh screen to allow for air flow. Groups of 10–20 females were loaded into canisters 24 h post-meal. Females were left in canisters overnight to acclimate with two cotton balls soaked in diH20 to prevent desiccation. Behavior trials began 48 h post-meal. Canisters were randomly assigned to attraction traps 1–4 and given 5 min to acclimate. The stimulus end of the trap was connected to a flowmeter that supplied 5% CO2 at a rate of 30 ml/min. Thirty seconds of CO2 flow was supplied to activate females prior to opening the sliding door. Once opened, the sliding door gave females access to the attraction trap baited with a human-scented nylon stocking previously worn by the same experimenter for 8–10 h to collect body odor and stored in a plastic bag at −20 °C until use. After 5 min, the sliding door was closed and attraction was scored as mosquitoes in the attraction trap/total number of mosquitoes. For each experiment data were normalized to the matched average saline attraction from the same experiment (% attracted/average saline attraction). Any dead mosquitoes were excluded from the analysis. Non-fed females and blood-fed females served as environmental control groups while the saline-fed females served as the vehicle control each day. If non-fed or saline-fed females were less than 50% attracted or if blood-fed females were more than 20% attracted behavioral trials were halted and all data from that experimental day were discarded.

Ae. aegypti NPYLR7 = Ae. aegypti NPYLR7 (Aedes aegypti, UniProt U5N1H5); test: In vitro calcium (GCaMP6s) FLIPR assay in HEK293T cells transfected with NPYLR7; assay type: cell-based; details: for activation at 100 µM: single replicate of the dose-response curve
Method: The in vitro screening assay was adapted from, and carried out at HD Biosciences (HDB, Shanghai) as follows: HEK293T (Thermo Fisher Scientific) cells were grown in Dulbecco’s modified Eagle medium (DMEM) (high glucose, with glutamine), 10% fetal bovine serum, 1% penicillin–streptomycin (Pen/Strep), seeded in a 75 cm^2 flask, and incubated at 37 °C and 5% CO2. Cells were transiently transfected with 1 μg of each plasmid expressing GCaMP6s (Addgene […]) (Chen et al., 2013), mouse Gqα15 (Addgene #40753) (Offermanns and Simon, 1995) and Ae. aegypti NPYLR7 (Addgene #52392) (Duvall et al. 2019) using Lipofectamine 2000 (Invitrogen) in 4 ml of Opti-MEM (Invitrogen). This mixture was added to a plate after 20 min and incubated for 6–8 h. Cells were then trypsinized, resuspended in phenol-free media, and plated in a 384-well plate (Greiner Bio-One) at a density of 20,000 cells per 40 μl, and incubated overnight (37 °C, 5% CO2). Cells were imaged directly in phenol-free media. Plates were loaded into a Molecular Devices fluorescence imaging plate reader (FLIPR) with an excitation wavelength of 470–495 nm and an emitted wavelength of 515–575 nm. Plates were imaged every second for 5 min. After 30 s of baseline fluorescence recording, 10 μl of the test compound in reading buffer [Hank’s Balanced Salt Solution (Gibco) + 20 mM HEPES (Sigma-Aldrich)] was added. Concentrations tested ranged from 0 to 100 μM. Data were collected in raw fluorescence units (RFU).
Each test plate included replicates of 10 μM FMRFa3 (H‐Ala‐Gly‐Gln‐Gly‐Phe‐Met‐Arg‐Phe‐NH2), an Ae. aegypti neuropeptide agonist of NPYLR7 used to calculate the hundred percent effect (HPE). The zero percent effect (ZPE) control was calculated as a response to buffer alone. The Z′ factor was calculated for each plate by Z^′=1-3σHPE+3σZPE/|μHPE-μZPE| . Plates with Z′ < 0.5 were excluded from analysis. Raw fluorescence units (RFU) were converted to percent effect relative to the average of the ZPE and HPE. Percent effect = (sample luminescence − average ZPE)/(average HPE − average ZPE)×100. […] Each replicate was plotted as percent effect versus log[concentration], and replicates with maximal responses between 20 and 250% were used for EC50 calculations. Relative EC50 was calculated using an [Agonist] versus response–variable slope four-parameter model where Y=Bottom+(X^Hillslope)∗(Top-Bottom)/(X^HillSlope+EC50^HillSlope) . For compounds with multiple replicates, the relative EC50 of each replicate was averaged.

[2] = EC50 of the individual assay date/plate (assay date), read-out: EC50
[3] = Figure 1E Summary, second list (n = 48), read-out: Reported Metric (Summary list)
[4] = relative EC50, percent effect relative to 10 μM FMRFa3, read-out: EC50
[5] = sheet Figure 3C, unit inferred, read-out: EC50
[6] = summary EC50 per compound (mean over assay dates), the unit is taken from the neighbouring EC50 (uM) column, read-out: Reported Metric
[7] = HEK-293T, single replicate, normalised response
[8] = Figure 1E Summary, third list (n = 39), read-out: Reported Metric (Summary list)

Sequence of Ae. aegypti NPYLR7 (U5N1H5 entry or part of it): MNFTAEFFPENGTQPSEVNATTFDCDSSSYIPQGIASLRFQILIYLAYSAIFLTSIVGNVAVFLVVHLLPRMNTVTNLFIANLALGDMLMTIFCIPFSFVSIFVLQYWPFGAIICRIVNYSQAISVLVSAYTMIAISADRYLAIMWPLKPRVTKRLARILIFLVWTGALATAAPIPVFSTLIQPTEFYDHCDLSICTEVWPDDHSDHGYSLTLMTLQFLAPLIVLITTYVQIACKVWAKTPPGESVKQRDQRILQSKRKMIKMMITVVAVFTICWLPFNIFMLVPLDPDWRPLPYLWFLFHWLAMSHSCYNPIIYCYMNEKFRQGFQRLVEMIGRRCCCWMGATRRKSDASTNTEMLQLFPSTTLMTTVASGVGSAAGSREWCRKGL

| SMILES | Host-seeking relative to saline (test compound % host-seeking/average matched saline % host-seeking) ([1]; listed as TDI-03758) | Attraction (relative to saline) [1] | EC50 (Ae. aegypti NPYLR7; [2]) | EC50 (Ae. aegypti NPYLR7; [3]) | activation at 100 µM (Ae. aegypti NPYLR7; HEK-293T, normalised response) | EC50 (Ae. aegypti NPYLR7; [4]) | EC50 (Ae. aegypti NPYLR7; [5]) | EC50 (Ae. aegypti NPYLR7; [6]) | activation at 11.1111 µM (Ae. aegypti NPYLR7; [7]) | activation at 3.7037 µM (Ae. aegypti NPYLR7; [7]) | activation at 33.3333 µM (Ae. aegypti NPYLR7; [7]) | Host-seeking relative to saline (test compound % host-seeking/average matched saline % host-seeking) ([1]; listed as TDI-04172) | EC50 (Ae. aegypti NPYLR7; [8]) | activation at 0.0457 µM (Ae. aegypti NPYLR7; HEK-293T, 0.0457 uM, single replicate, normalised response) | activation at 0.1372 µM (Ae. aegypti NPYLR7; HEK-293T, 0.1372 uM, single replicate, normalised response) | Host-seeking relative to saline (test compound % host-seeking/average matched saline % host-seeking) ([1]; listed as TDI-04177) | activation at 0.4115 µM (Ae. aegypti NPYLR7; [7]) | activation at 1.2346 µM (Ae. aegypti NPYLR7; [7]) | Host-seeking relative to saline (test compound % host-seeking/average matched saline % host-seeking) ([1]; listed as TDI-04174) | Host-seeking relative to saline (test compound % host-seeking/average matched saline % host-seeking) ([1]; listed as TDI-04183) |
| --- | --- | --- | --- | --- | --- | --- | --- | --- | --- | --- | --- | --- | --- | --- | --- | --- | --- | --- | --- | --- |
| CCOc1cc2c(C)nc(NC(=N)N)nc2cc1OCc1ccccc1 [TDI-013758] | 1.17 | 0.78 | 8.53 µM | 8.53 µM | 80.6% | 8.53 µM | 8.53 µM | 8.53 µM |  |  |  |  |  |  |  |  |  |  |  |  |
| Cc1nc(NC(=N)N)nc2cc(OCC3CCCCO3)ccc12 (stereo not drawn) [TDI-014192] |  | 1.035 | 5.76 µM | 5.76 µM | 67.4% | 5.76 µM | 5.76 µM | 5.76 µM | 55.1% |  |  |  |  |  |  |  |  |  |  |  |
| Cc1nc(NC(=N)N)nc2cc(OCC3CCCCC3)ccc12 [TDI-014169] |  | 1.025 | 4.43 µM | 4.43 µM | 113% | 4.44 µM | 4.43 µM | 4.43 µM | 78.4% | 42.2% | 94.5% |  |  |  |  |  |  |  |  |  |
| Cc1nc(NC(=N)N)nc2cc(OCc3ccc(OC(F)(F)F)cc3)ccc12 [TDI-014172] |  | 0.975 | 19.7 µM | 19.7 µM |  | 19.7 µM | 19.7 µM | 19.7 µM | 57% |  | 89.6% | 1 and 1.1 |  |  |  |  |  |  |  |  |
| CNc1nc(NC(=N)N)nc2cc(OCc3ccc(OC)cc3)c(OC)cc12 [TDI-014185] |  | 0.79 | 0.0175 µM |  |  | 0.0175 µM | 0.0175 µM | 0.0175 µM | 79.9% |  |  |  | 0.0175 µM | 70.6% | 69.2% |  |  |  |  |  |
| CCOc1ccc2c(C)nc(NC(=N)N)nc2c1 [TDI-014177] |  | 0.94 | 5.6 µM | 5.6 µM | 49.6% | 5.6 µM | 5.6 µM | 5.6 µM |  |  |  |  |  |  |  | 1.17 and 0.9 |  |  |  |  |
| Cc1nc(NC(=N)N)nc2cc(OCc3cccnn3)ccc12 [TDI-014179] |  | 0.865 | 39.3 µM | 39.3 µM |  | 39.3 µM | 39.3 µM | 39.3 µM |  |  | 23.1% |  |  |  |  |  |  |  |  |  |
| COc1ccc(OCc2ccc3c(C)nc(NC(=N)N)nc3c2)cc1 [TDI-014175] |  | 0.905 | 0.547 µM |  | 117% | 0.548 µM | 0.547 µM | 0.547 µM | 98.4% | 89.7% |  |  | 0.547 µM |  |  |  | 35.1% | 65.9% |  |  |
| COc1ccc(COc2ccc3c(C)nc(NC(=N)N)nc3c2)cn1 [TDI-014173] |  | 0.88 | 1.32 µM |  |  | 1.32 µM | 1.32 µM | 1.32 µM | 74.1% | 83.8% | 101% |  | 1.32 µM |  |  |  | 47.7% | 53.6% |  |  |
| Cc1nc(NC(=N)N)nc2cc(OCC3CCOC3)ccc12 (stereo not drawn) [TDI-014174] |  | 1 | 5.31 µM | 5.31 µM | 102% | 5.31 µM | 5.31 µM | 5.31 µM |  | 42% | 92.2% |  |  |  |  |  |  |  | 1.41 |  |
| Cc1nc(NC(=N)N)nc2cc(OCC3CC3)ccc12 [TDI-014171] |  | 0.79 | 0.912 µM |  | 66.3% | 0.912 µM | 0.912 µM | 0.912 µM | 63.8% | 50.2% |  |  | 0.912 µM |  |  |  |  | 32.9% |  |  |
| Cc1nc(NC(=N)N)nc2cc(OCc3cnccn3)ccc12 [TDI-014181] |  | 0.975 | 6.21 µM | 6.21 µM |  | 6.21 µM | 6.21 µM | 6.21 µM |  |  |  |  |  |  |  |  |  |  |  |  |
| Cc1nc(NC(=N)N)nc2cc(OC3CCCc4ccccc43)ccc12 (stereo not drawn) [TDI-014183] |  | 0.88 | 13.7 µM | 13.7 µM |  | 13.7 µM | 13.7 µM | 13.7 µM |  |  |  |  |  |  |  |  |  |  |  | 0.97 |
